Measured values published in US9861616B2, “Methods for treating respiratory diseases and formulations therefor” (priority 2013, dated 2018).

Assays:
P. aeruginosa (PA) = experiment: MIC by microdilution, 36 clinical and laboratory strains with known efflux phenotype; type: cell-based
Description: MICs of 36 clinical and laboratory strains of PA with known efflux phenotype are measured by microdilution in cation-adjusted Muller-Hinton broth (CA-MHB) or in RPMI medium (commonly used in eukaryotic cell culture). Phe-Arg-β-naphthylamide (PaβN, 50 mg/L) and EGTA 5 mM are used to inhibit efflux pumps and alter OM integrity, respectively. P. aeruginosa strain ATCC PAO1 is used as reference. PA12 is a clinical strain overexpressing the 4 main efflux systems (MexAB, MexCD, MexEF, MexXY), PA403 is a laboratory strain deleted in the genes coding for the 4 efflux systems. A series of reference strains or of clinical isolates for which the expression of genes coding for efflux pumps is known is also used for MICs determinations. MICs are measured by microdilution in MH broth or in RPMI medium (used for eukaryotic cells culture) supplemented with 10% of fetal calf serum, or in MH broth supplemented by increasing amounts of serum. EGTA (5 mM) was used as a chelating agent (disrupting outer membrane integrity) and PaβN (50 mg/L) as an unspecific efflux inhibitor.

MMP9 activity = experiment: PMA-induced MMP9 activation in U937 cells (gelatin zymography); type: cell-based, human
Description: Effects of macrolides on phorbol 12-myristate 13-acetate (PMA)-induced MMP9 activation in U937 cells. […] After 48 h supernatants were collected for zymography. MMP9 enzyme activity was measured by gelatin zymography. Data are expressed relative to standard.
The human monocytic cell line U937 was obtained from the American Type Culture Collection (ATCC, Rockville, Md.). PBMCs from COPD patients were obtained from Brompton hospital and separated by AccuSPIN (Sigma-Aldrich). Cells were cultured in complete growth medium (RPMI 1640) (Sigma-Aldrich) supplemented with 10% fetal bovine serum (FBS) and 1% L-glutamine at 37° C. in a humidified atmosphere with 5% CO2. U937 cells were differentiated into adherent macrophage-like morphology by exposure to PMA (50 ng/mL) for 48 hrs in complete growth medium. Cell viability was assessed microscopically by trypan blue staining. Cell toxicity was determined by MTT assay as needed. This study was approved by the ethics committee of the Royal Brompton Hospitals, and all subjects gave written informed consent.
MMP9 enzyme activity was measured by gelatin zymography. Cell culture supernatants were diluted with equal amount of Laemli sample buffer (Bio-Rad, Hertfordshire, UK) and loaded on a Novex® 10% Zymogram (Gelatin) gel (Invitrogen Ltd, Paisley, UK). After electrophoresis, gels were incubated and rinsed with Novex® zymogram renaturing buffer (Invitrogen) for 30 min at room temperature. The gels were then rinsed in Novex® zymogram developing buffer (Invitrogen) for 30 min at room temperature prior to overnight incubation in the developing buffer at 37° C. After incubation, the gels were stained using a Colloidal Blue Staining Kit (Invitrogen) to visualize the zymogen bands.
The results were expressed as the mean±SEM. Comparisons of data in two groups were performed using the Student's t test or the Wilcoxon signed rank test. Multiple comparisons were made by one-way ANOVA with post hoc test (Dunnett's) as appropriate. The difference was considered significant at p<0.05. IC50 values (50% inhibitory concentration) for macrolides for production of cytokines or MMP9 were calculated using Prism 4.0 (GraphPad Software Inc., San Diego, Calif.).

CC[C@H]1OC(=O)[C@H](C)[C@@H](O[C@H]2C[C@@](C)(OC)[C@@H](O)[C@H](C)O2)[C@H](C)[C@@H](O[C@@H]2O[C@H](C)C[C@H](N(C)C)[C@H]2O)[C@](C)(O)C[C@@H](C)C(=O)[C@H](C)[C@@H](O)[C@]1(C)O [ERY, erythromycin]
4 µg/mL: MIC (P. aeruginosa (PA); strain 398, efflux CD−, RPMI) | MIC (P. aeruginosa (PA); strain 399, efflux AB − EF−, RPMI) | MIC (P. aeruginosa (PA); strain 400, efflux XY−, RPMI) | MIC (P. aeruginosa (PA); strain 401, ompH−, RPMI) | MIC (P. aeruginosa (PA); strain 403, efflux AB − CD − EF − XY−, RPMI) | MIC (P. aeruginosa (PA); strain 405, efflux AB − CD − EF − XY−, RPMI)
> 333 µM: IC50 (MMP9 activity; Homo sapiens, U-937, at 333 μM, read-out: IC50, PMA-induced MMP9 activation: NE at 333 μM)
16 µg/mL: MIC (P. aeruginosa (PA); strain 11, efflux AB + CD+, RPMI) | MIC (P. aeruginosa (PA); strain 156, efflux EF + XY+, RPMI) | MIC (P. aeruginosa (PA); strain 392, efflux CD−, RPMI) | MIC (P. aeruginosa (PA); strain 396, ompH−, RPMI) | MIC (P. aeruginosa (PA); strain 397, efflux AB−, MHB) | MIC (P. aeruginosa (PA); strain 398, efflux CD−, MHB) | MIC (P. aeruginosa (PA); strain 399, efflux AB − EF−, MHB) | MIC (P. aeruginosa (PA); strain 400, efflux XY−, MHB) | MIC (P. aeruginosa (PA); strain 403, efflux AB − CD − EF − XY−, MHB)
512 µg/mL: MIC (P. aeruginosa (PA); strain 1, efflux AB+, MHB) | MIC (P. aeruginosa (PA); strain 2, efflux CD+, MHB) | MIC (P. aeruginosa (PA); strain 4, efflux XY+, MHB) | MIC (P. aeruginosa (PA); strain 12, efflux AB + CD + EF + XY+, MHB) | MIC (P. aeruginosa (PA); strain 16, efflux AB + XY+, MHB) | MIC (P. aeruginosa (PA); strain 21, efflux AB+, MHB) | MIC (P. aeruginosa (PA); strain 22, efflux XY+, MHB) | MIC (P. aeruginosa (PA); strain 41, efflux CD+, MHB) | MIC (P. aeruginosa (PA); strain 48, efflux CD + EF + XY+, MHB) | MIC (P. aeruginosa (PA); strain 49, efflux CD + EF + XY+, MHB) | MIC (P. aeruginosa (PA); strain 63, efflux AB + EF + XY+, MHB) | MIC (P. aeruginosa (PA); strain 68, efflux AB + XY+, MHB) | MIC (P. aeruginosa (PA); strain 133, efflux EF + XY+, MHB) | MIC (P. aeruginosa (PA); strain 156, efflux EF + XY+, MHB) | MIC (P. aeruginosa (PA); strain 168B, efflux CD + XY+, MHB) | MIC (P. aeruginosa (PA); strain 207, efflux AB + EF + XY+, MHB) | MIC (P. aeruginosa (PA); strain 266B, efflux AB + CD+, MHB) | MIC (P. aeruginosa (PA); strain 333A, efflux AB + EF+, MHB) | MIC (P. aeruginosa (PA); strain 335, efflux AB + EF+, MHB) | MIC (P. aeruginosa (PA); strain 394, efflux XY−, MHB) | MIC (P. aeruginosa (PA); strain 434, efflux AB + CD + XY+, MHB) | MIC (P. aeruginosa (PA); strain PAO1, REFERENCE, MHB)
2 µg/mL: MIC (P. aeruginosa (PA); strain 397, efflux AB−, RPMI)
8 µg/mL: MIC (P. aeruginosa (PA); strain 1, efflux AB+, RPMI) | MIC (P. aeruginosa (PA); strain 3, efflux EF+, RPMI) | MIC (P. aeruginosa (PA); strain 401, ompH−, MHB) | MIC (P. aeruginosa (PA); strain 405, efflux AB − CD − EF − XY−, MHB)
32 µg/mL: MIC (P. aeruginosa (PA); strain 4, efflux XY+, RPMI) | MIC (P. aeruginosa (PA); strain 12, efflux AB + CD + EF + XY+, RPMI) | MIC (P. aeruginosa (PA); strain 16, efflux AB + XY+, RPMI) | MIC (P. aeruginosa (PA); strain 22, efflux XY+, RPMI) | MIC (P. aeruginosa (PA); strain 40, efflux EF+, RPMI) | MIC (P. aeruginosa (PA); strain 391, efflux EF−, RPMI) | MIC (P. aeruginosa (PA); strain 394, efflux XY−, RPMI) | MIC (P. aeruginosa (PA); strain 395, efflux HI−, RPMI) | MIC (P. aeruginosa (PA); strain PAO1, REFERENCE, RPMI)
no effect: effect on MMP9 activity (MMP9 activity)
64 µg/mL: MIC (P. aeruginosa (PA); strain 21, efflux AB+, RPMI) | MIC (P. aeruginosa (PA); strain 41, efflux CD+, RPMI) | MIC (P. aeruginosa (PA); strain 48, efflux CD + EF + XY+, RPMI) | MIC (P. aeruginosa (PA); strain 49, efflux CD + EF + XY+, RPMI) | MIC (P. aeruginosa (PA); strain 63, efflux AB + EF + XY+, RPMI) | MIC (P. aeruginosa (PA); strain 68, efflux AB + XY+, RPMI) | MIC (P. aeruginosa (PA); strain 133, efflux EF + XY+, RPMI) | MIC (P. aeruginosa (PA); strain 266B, efflux AB + CD+, RPMI) | MIC (P. aeruginosa (PA); strain 333A, efflux AB + EF+, RPMI) | MIC (P. aeruginosa (PA); strain 335, efflux AB + EF+, RPMI)
